How the values were obtained:
[1] = molecular target: T1, F1F0 ATP hydrolysis (Bos taurus, UniProt P00829+P19483); conditions: cited from earlier work; for IC50: IF1 protein depleted SMPs from Bos taurus, pH 6.7, 37° C. [142]
T1 construct: IF1 protein depleted Sub-Mitochondrial Particles (SMPs) from Bos taurus; from tissue; host or cells: sub-mitochondrial particles from Bos taurus, endogenous IF1 removed

[2] = test system: cancer cell lines of the NCI-60 assay; test: NCI one-dose (10 μM) NCI-60 testing; assay type: cell-based; conditions: for anti-cancer activity: NCI-60 anti-cancer testing in vitro; for inhibition at 10 µM: 1-dose testing
Protocol: FIG. 1: Chiral supercritical fluid chromatography (SFC) was used to separate the shown racemate into its component R and S stereoisomers and two samples of opposite >97% enantiomeric excess (ee) was achieved: termed 8a and 8b respectively. 8a and 8b differ from 6a and 6b because they have methyl (Me, CH3), instead of hydrogen (H), upon their chiral carbon. 8a and 8b were independently tested in NCI one-dose (10 μM) testing: their results are shown in FIGS. (1B) and (1C) respectively.
(§1) (1E) 8a and 8b NCI one-dose (10 μM) test results side by side. % cancer growth inhibition >100 means there are less cancer cells at experiment end than beginning (i.e. cancer killing activity), =200=all cancer cells dead at experiment end. The observed pattern of 8a vs. 8b activity is hard to explain. One would expect one stereoisomer to have greater or equal activity than the other. […] Moreover, for one cancer cell line (NCI-H322M), 8a has no activity, yet 8b does.

[3] = test system: cells; conditions: each attached to the cargo sequence by introduced cysteines and a disulphide bond; cited from earlier work
[4] = test system: A498; test: NCI one-dose (10 μM) testing, A498; assay type: cell-based
Protocol: as §1

[5] = test system: NCI-H322M; test: NCI one-dose (10 μM) testing, NCI-H322M; assay type: cell-based
Protocol: as §1

[6] = test system: cancer cell lines of the NCI-60 assay; test: NCI-60 five-dose in vitro assay; assay type: cell-based; conditions: at 10 μM in 5-dose testing
Protocol: The present figure, herein, is a summary figure of that data (corresponding to FIG. 16K in the aforementioned Canadian application). Mean G150 for 8b and 8a is 3.09 and 2.85 μM respectively. […] In the 8a case, this GI50 is lower/better than 65% of 102 FDA approved cancer drugs in [112]. A salt of 8a. e.g. 8a HCl, is likely to have an even lower G150 in NCI five-dose testing.
The Pearson correlation coefficient between 8a activity in 1-dose (10 μM) and at 10 μM in 5-dose NCI-60 testing: R=0.4544 p=0.00034. The Pearson correlation coefficient between 8b activity in 1-dose (10 μM) and at 10 μM in 5-dose NCI-60 testing: R=0.6156, p<0.00001. […] So, this isn't unexpected. Not wishing to be bound by theory, in 5-dose NCI-60 testing, why 8a has a lower mean GI50 than 8b will now be explained. […] Except for the cancer cell lines that 8b exerted much more activity than 8a at in 1-dose testing, wherein the increased activity of 8a can't completely make up the deficit and overtake the activity of 8b.

[7] = rectal temperature and activity of mice administered compound; assay type: in vivo, mouse
Protocol: Hypoactivity of mouse, after being administered compound 6b, was because 6b caused the mouse's body temperature to drop towards its ambient temperature (22° C.). When ambient equals optimal body temperature (37° C.), 6b cannot reduce body temperature and cannot cause hypoactivity. In some embodiments, the hypoactivity/sedation aspect to a compound(s) of this disclosure is utilized for therapy. The intersection between drug dose and ambient temperature dictates how much the body temperature falls and thence the depth of the sedation. Larger drug dose, and/or lower ambient temperature, causes deeper sedation (e.g. useful for inducing anaesthesia, pre-anaesthesia, post-anaesthesia, hypoesthesia, sedation, coma, tranquilization, behavioural submission, muscle relaxation and/or treating/ameliorating/preventing/combating insomnia, fatal insomnia, sleep onset latency, delayed sleep phase disorder, exploding head syndrome, parasomnia, sleep-maintenance insomnia, sleep disorder etc.; repeated/continuous administration, e.g. repeated i.v. injections or continuous i.v. infusion, of a compound(s) of this disclosure can sedate a subject for an extended period of time). Smaller drug dose, and/or higher ambient temperature, causes lighter sedation (e.g. useful for anti-anxiety, anti-depression, hyperactivity etc.). At ambient≥optimal body temperature (37° C.), no sedation occurs. […]

[8] = test system: F1F0 ATP hydrolysis; conditions: [8, 109]; cited from earlier work
[9] = test system: MDA-MB-231/ATCC; test: NCI one-dose (10 μM) testing, MDA-MB-231/ATCC; assay type: cell-based
Protocol: as §1

[10] = read-out: Mean % cancer growth inhibition
[11] = read-out: Median % cancer growth inhibition

Compound: 1-56: Bos taurus IF1 protein fragment, residues 1-56 (GSESGDNVRSSAGAVRDAGGAFGKREQAEEERYFRARAKEQLAALKKHHENEISHH; UniProt P01096 26-81, looked up, fragment) [Compound 1-56]
- IC50 [1]: 0.032 µM

Compound: [2H][C@@](Cn1ccnc1)(N/C(=N/C(=O)c1cccc(C#N)c1)Nc1ccc(Cl)cc1)c1ccc(Cl)cc1Cl [Compound 7a]
- anti-cancer activity [2]: less anti-cancer activity than 6a

Compound: RRRRRRR (Cell Penetrating Peptide (CPP) sequence) [Compound R7, heptamer of L-arginine residues, cell penetrating peptide]
- cellular penetration compared with Tat or penetratin [3]: twice as good

Compound: C[C@@](Cn1ccnc1)(N/C(=N/C(=O)c1cccc(C#N)c1)Nc1ccc(Cl)cc1)c1ccc(Cl)cc1Cl [Compound 8a]
- inhibition at 10 µM [2, 10]: 60.3%
- inhibition at 10 µM [2, 11]: 59.8%
- Δ % cancer growth inhibition, 8a greater than 8b [4]: 38.57
- anti-cancer activity [5]: no activity
- inhibition at 10 µM [6, 10]: 103%
- inhibition at 10 µM [6, 11]: 95%

Compound: N#Cc1cccc(C(=O)/N=C(\Nc2ccc(Cl)cc2)N[C@H](Cn2ccnc2)c2ccc(Cl)cc2Cl)c1 [Compound 6b]
- anti-cancer activity [2]: anti-cancer activity
- rectal temperature ([7]; ambient room temperature 22° C., dose dependent): reduces its rectal temperature towards the ambient room temperature
- hypoactivity ([7]; ambient temperature 22° C.): hypoactivity
- ability to inhibit/reduce F1F0 ATP hydrolysis [8]: can potently inhibit/reduce F1F0 ATP hydrolysis

Compound: C[C@](Cn1ccnc1)(N/C(=N/C(=O)c1cccc(C#N)c1)Nc1ccc(Cl)cc1)c1ccc(Cl)cc1Cl [Compound 8b]
- inhibition at 10 µM [2, 10]: 76.5%
- inhibition at 10 µM [2, 11]: 77%
- anti-cancer activity [2]: greater anti-cancer activity than 8a
- Δ % cancer growth inhibition, 8b greater than 8a [9]: 85.34%
- anti-cancer activity [5]: does
- inhibition at 10 µM [6, 10]: 99.4%
- inhibition at 10 µM [6, 11]: 93%

Compound: 1-60: Bos taurus IF1 protein fragment, residues 1-60 (GSESGDNVRSSAGAVRDAGGAFGKREQAEEERYFRARAKEQLAALKKHHENEISHHAKEI; UniProt P01096 26-85, looked up, fragment) [Compound 1-60]
- IC50 [1]: 0.019 µM

Compound: 10-46: Bovine IF1 protein fragment, residues 10-46 (SSAGAVRDAGGAFGKREQAEEERYFRARAKEQLAALK; UniProt P01096 35-71, looked up, fragment) [Compound 10-46]
- inhibitory activity ([1]; bovine IF1 protein fragments, FIG. 10I legend [142, 144]): ten-fold less activity than 10-47

Compound: 10-47: Bos taurus IF1 protein fragment, residues 10-47, mature numbering (SSAGAVRDAGGAFGKREQAEEERYFRARAKEQLAALKK; UniProt P01096 35-72, looked up, fragment) [Compound 10-47]
- IC50 [1]: 0.045 µM

Compound: Bos taurus IF1 protein: Bos taurus IF1 protein recombinantly produced in E. Coli
- IC50 [1]: 0.034 µM

Compound: N#Cc1cccc(C(=O)/N=C(\Nc2ccc(Cl)cc2)N[C@@H](Cn2ccnc2)c2ccc(Cl)cc2Cl)c1 [Compound 6a]
- anti-cancer activity [2]: anti-cancer activity
- ability to inhibit/reduce F1F0 ATP hydrolysis [8]: cannot
